Source: patent publication US7091238B1, “Thienylhydrazon with digitalis-like properties (positive inotropic effects)” (University of Maryland, priority 1999, dated 2006)
“Also recorded” adds a separate entry of the source.

How the values were obtained:
[1] = test system: isolated rat heart; assay: Electrocardiogram of isolated heart (modified Langendorff perfusion); conditions: isolated rat heart without pre-load; 10, 50, 100 μM
Protocol: FIG. 4. Hearts of adult rats were quickly removed and placed in an aorta retrograde perfusion system (modified Langendorrff) for measurement of electrocardiogram (ECG).
a Recordings of electrocardiogram (ECG) of isolated rat heart are shown in FIG. 4 which compare control, LASSBio-294 treatment, 10 uM, 50 μM and 100 μM and post-treatment wash. […] FIG. 5 illustrates a test of change in isometric tension induced by LASSBio-294 in isolated hearts under preload. Concentration of LASSBio-294 in the bathing solution is 50 μM, which is half of the highest concentration tested in the ECG tests described in FIG. 4. Hearts were treated under a pre-load of 1 g; control was compared to LASSBio-294 and wash. […] This effect was lost in the wash out period. The pre-load tension test is considered to be an animal model of congestive heart disease. Comparing the effect of drugs with this test is predictive of therapeutic effect of treatment in human congestive heart disease. General Method
Hearts were quickly removed and placed in an aorta retrograde perfusion system for measurement of ECG. Increasing concentrations of LASSBio-294 were added to the bathing solution. The system equilibrated for 5 min. before measurement of isometric tension after each addition.

[2] = test system: dogs; assay: Left intraventricular and arterial pressure in intact anesthetized dogs; assay type: in vivo, dog; conditions: normal cardiac function, no pre-load, 1 mg kg^−1 min^−1 for 13 min
Protocol: FIG. 6. Recording of left intraventricular pressure and arterial pressure in dogs anesthetized and ventilated normally.
FIG. 6 illustrates a test that measured pressure from the hearts of intact dogs during LASSBio-294 application. Recordings were made of left intraventricular pressure and arterial pressure.
Dogs were anesthetized and normally ventilated. Recordings were made before and after application of LASSBio-294, 1 mg kg^−1 min^−1 for 13 min.

[3] = test system: contractile system of cardiac fibers; assay: Ca2+-induced tension in Triton X-100 treated left ventricular muscle bundles; set-up: species or system Wistar rats
Protocol: FIG. 12. Muscle bundles were treated with 1% Triton X-100 for 60 min and exposed to solutions containing increasing concentrations of Ca^2+ in the presence or absence of LASSBio-294 (100 μM). Calibration: Vertical, 10 mm=20 mg; Horizontal, 10 mm=40 sec.
FIG. 13. Bundles of left ventricular muscles were treated with Triton X-100 and exposed to increasing concentrations of Ca^2+. Muscle tension expressed as % of the maximal response induced by 0.5 mM CaCl2 is graphed as a function of pCa.
b. Graphic representation of the tests in FIG. 7 showing the effect of LASSBio-294 on uptake of Ca^2+ by sarcoplasmic reticulum in isolated cardiac muscle with sarcolemma removed. FIG. 9 illustrates the effect of LASSBio-294 on tension in isolated cardiac muscle with sarcolemma removed was measured. Measurement of contraction induced by caffeine, as a function concentration of LASSBio-294 in bathing solution. FIG. 9 is a graphic representation of the effect of increasing concentrations of LASSBio-294 between 0 and 20 μM. […] FIG. 12 illustrates the effect of LASSBio-294 on sensitivity of cardiac fibers to calcium. Calcium levels can induce isometric twitch. […]
Bundles of left ventricular muscle (130 μm diameter and 1–2 mm in thickness) from Wistar rats were dissected out and mounted for measurement of isometric tension. […] Comparison of caffeine alone to caffeine in the presence of LASSBio-294 was measured.

[4] = test system: sarcoplasmic reticulum of human skeletal muscle fibers (vastus lateralis); assay: Induced tension in isolated human skeletal muscle fiber (sarcolemma removed); assay type: cell-based; conditions: 25, 50, 100 μM, SR loaded at pCa 7.0 for 3 min
Protocol: FIG. 14. Isolated human skeletal muscle fiber from the vastus lateralis (sarcolemmal membrane-free) was exposed to 0.5 mM of CaCl2 to enable maximal muscle tension (Po). The histogram show the effect of LASSBio-294 at concentrations of 25, 50 and 100 μM on induced tension in human fibers. N=6 Calibration: Vertical; 10 mm=20 mg; Horizontal, 10 mm=40 s.
Isolated muscle fiber from the vastus lateralis was exposed to 0.5 mM of CaCl2 to enable maximal muscle tension.

[5] = test system: neuromuscular transmission; assay: Contractions of gastrocnemius muscle induced by stimulation of the sciatic nerve; assay type: in vivo; conditions: rat gastrocnemius, vs DMSO vehicle
Protocol: FIG. 30. Records of contractions induced by stimulation of the sciatic nerve of equilibrated rat gastrocnemius muscles and of arterial pressure. In control, contractions were induced by intravenous injection of DMSO ([…]). LASSBio-294 was administered in DMSO. Calibration: Horizontal, 1 cm=24 s; Vertical 2 g=100 mm Hg.
FIG. 31. Records of contractions of rat gastrocnemius muscles induced by stimulation of the sciatic nerve and of arterial pressure. For control, contraction was induced by intravenous injection of […] (0.04 ml). LASSBio-294 was administered in DMSO.

O=C(NN=Cc1cccs1)c1ccc2c(c1)OCO2 [LASSBio-294, 3,4-methylenedioxybenzoyl-2-thienylhydrazone]
effect on ECG [1]: No treatment had any effect on ECG; also recorded: no change | left intraventricular pressure and arterial pressure [2]: no change in pressure | sensitivity of muscle fibers to calcium [3]: does not change | isometric twitch response at each level of pCa ([3]; Triton X-100 treated fibers, 100 μM vs control): greater in the presence of LASSBio-294 than in control | release of Ca^2+ from the sarcoplasmic reticulum / induced tension [4]: induces the release of Ca^2+; also recorded: evoked a contraction | effect on neuromuscular junction / transmission [5]: no effect on the neuromuscular junction; also recorded: no effect on neuromuscular transmission; also recorded: unaffected
